Laboratory results: the supplement of paper PMC10307832

What was measured:
Experiment in all cases: relative viability (nuclei count vs DMSO), 5 days (fraction); higher = more cells survive
JZL-184 = compound: C1CN(CCC1C(C2=CC3=C(C=C2)OCO3)(C4=CC5=C(C=C4)OCO5)O)C(=O)OC6=CC=C(C=C6)[N+](=O)[O-] [JZL-184]
In short: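 Lung cancer cell lines in 1536-well plates were exposed by pinning to five library-drug doses (not always all listed) √10 apart, following an overnight hold at 37 °C. MetaXpress counted Hoechst-stained nuclei from 4× images taken after 5 days without medium change. Viability is the median ratio of treated-well to vehicle-well nuclei across plates. Plates required control CV below 25% and at least one doubling.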

JZL-184 + Vorinostat = compound: C1CN(CCC1C(C2=CC3=C(C=C2)OCO3)(C4=CC5=C(C=C4)OCO5)O)C(=O)OC6=CC=C(C=C6)[N+](=O)[O-] [JZL-184] + O=C(CCCCCCC(=O)Nc1ccccc1)NO [Vorinostat] (partner 1 µM)
In short: (§1)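 Nuclei were stained with Hoechst during a one-step fixation (final 0.05% Triton X-100, 1% formaldehyde, 1 ug/ml Hoechst) carried out 5 days after dosing, then counted on 4× images. The cells, lung cancer lines in 1536-well plates, had been dosed by pin tool the day after seeding with one drug alone or a fixed anchor-drug dose plus five library-drug doses (not always all listed) in √10 steps. Relative viability is the nuclei count in treated wells divided by that in vehicle wells, and each value is the median of duplicate plates.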

JZL-184 + Luminespib = compound: C1CN(CCC1C(C2=CC3=C(C=C2)OCO3)(C4=CC5=C(C=C4)OCO5)O)C(=O)OC6=CC=C(C=C6)[N+](=O)[O-] [JZL-184] + CCNC(=O)c1noc(-c2cc(C(C)C)c(O)cc2O)c1-c1ccc(CN2CCOCC2)cc1 [Luminespib] (partner 0.01 µM)
In short: as §1

JZL-184 + Linsitinib = compound: C1CN(CCC1C(C2=CC3=C(C=C2)OCO3)(C4=CC5=C(C=C4)OCO5)O)C(=O)OC6=CC=C(C=C6)[N+](=O)[O-] [JZL-184] + C[C@]1(O)C[C@@H](c2nc(-c3ccc4ccc(-c5ccccc5)nc4c3)c3c(N)nccn32)C1 [Linsitinib] (partner 1 µM)
In short: as §1

JZL-184 + Crizotinib = compound: C1CN(CCC1C(C2=CC3=C(C=C2)OCO3)(C4=CC5=C(C=C4)OCO5)O)C(=O)OC6=CC=C(C=C6)[N+](=O)[O-] [JZL-184] + C[C@@H](Oc1cc(-c2cnn(C3CCNCC3)c2)cnc1N)c1c(Cl)ccc(F)c1Cl [Crizotinib] (partner 1 µM)
In short: as §1

Cell Line | relative viability (JZL-184; 0.04 µM) | relative viability (JZL-184; 0.4 µM) | relative viability (JZL-184; 1.265 µM) | relative viability (JZL-184; 4 µM) | relative viability (JZL-184 + Vorinostat; first compound 0.04 µM) | relative viability (JZL-184 + Vorinostat; first compound 0.4 µM) | relative viability (JZL-184 + Vorinostat; first compound 1.265 µM) | relative viability (JZL-184 + Vorinostat; first compound 4 µM) | relative viability (JZL-184 + Luminespib; first compound 0.04 µM) | relative viability (JZL-184 + Luminespib; first compound 0.4 µM) | relative viability (JZL-184 + Luminespib; first compound 1.265 µM) | relative viability (JZL-184 + Luminespib; first compound 4 µM) | relative viability (JZL-184 + Linsitinib; first compound 0.04 µM) | relative viability (JZL-184 + Linsitinib; first compound 0.4 µM) | relative viability (JZL-184 + Linsitinib; first compound 1.265 µM) | relative viability (JZL-184 + Linsitinib; first compound 4 µM) | relative viability (JZL-184 + Crizotinib; first compound 0.04 µM) | relative viability (JZL-184 + Crizotinib; first compound 0.4 µM) | relative viability (JZL-184 + Crizotinib; first compound 1.265 µM) | relative viability (JZL-184 + Crizotinib; first compound 4 µM)
NCI-H1915 | 1.09 | 0.956 | 1.1 | 0.976 | 0.481 | 0.493 | 0.48 | 0.537 | 0.913 | 0.682 | 0.8 | 0.718 | 1.14 | 0.996 | 1.09 | 1.02 | 0.924 | 0.821 | 0.902 | 0.84
NCI-H1944 | 0.954 | 0.921 | 1.03 | 1.01 | 0.528 | 0.476 | 0.565 | 0.475 | 0.615 | 0.682 | 0.766 | 0.754 | 1.18 | 1.2 | 1.28 | 1.16 | 1.27 | 1.04 | 1.12 | 1.04
NCI-H1975 | 0.996 | 0.938 | 1.01 | 0.915 | 0.731 | 0.694 | 0.718 | 0.635 | 0.275 | 0.292 | 0.265 | 0.168 | 1.04 | 1.04 | 1.02 | 0.896 | 1.11 | 0.901 | 0.995 | 0.975
NCI-H1993 | 0.943 | 0.982 | 1.08 | 0.916 | 0.907 | 0.736 | 1.21 | 0.764 | 0.846 | 0.745 | 0.885 | 0.968 | 0.703 | 0.773 | 0.727 | 0.696 | 0.956 | 0.805 | 0.934 | 0.903
NCI-H2009 | 1.12 | 0.942 | 1.02 | 1 | 0.702 | 0.692 | 0.69 | 0.745 | 1.1 | 0.917 | 1.08 | 1.02 | 1.18 | 1.13 | 1.2 | 1.19 | 1.15 | 1.06 | 1.02 | 1.01
NCI-H2023 | 1.15 | 0.921 | 1.01 | 0.944 | 0.766 | 0.587 | 0.588 | 0.44 | 0.958 | 0.624 | 0.918 | 0.575 | 0.664 | 0.756 | 0.757 | 0.522 | 0.726 | 0.626 | 0.671 | 0.578
NCI-H2085 | 0.719 | 0.989 | 1.07 | 0.98 | – | 0.805 | 0.832 | 0.709 | 0.327 | 0.454 | 0.46 | 0.443 | 0.852 | 0.862 | 1.18 | 0.866 | 0.969 | 0.806 | 0.808 | 0.844
NCI-H2087 | 1.15 | 0.99 | 1.04 | 1.11 | 0.969 | 0.742 | 0.807 | 1 | 0.167 | 0.134 | 0.157 | 0.209 | 1.14 | 0.765 | 0.999 | 0.961 | 0.928 | 0.816 | 0.757 | 0.93
